Data: patent US20240239755A1, “SUBSTITUTED PYRIDAZINONES, SALTS OR N-OXIDES THEREOF AND THEIR USE AS HERBICIDALLY ACTIVE SUBSTANCES” (Bayer Aktiengesellschaft, priority 2021, published 2024)

Key:
Type in all cases: in vivo
Kochia scoparia (KCHSC) [1] = test: Herbicidal post-emergence action, 1280 g/ha (Table B4); conditions: visual assessment after ca. 3 weeks vs untreated controls
Source text: (§1) Seeds of mono- and dicotyledonous weed plants were sown in plastic pots (double sowings with one species of mono- and one species of dicotyledonous weed plants per pot), in sandy loam, covered with soil and grown under controlled growth conditions. 2 to 3 weeks after sowing, the test plants were sprayed in the single-leaf stage. The compounds according to the invention, formulated in the form of wettable powders (WP) or as emulsifiable concentrates (EC), were sprayed onto the green plant parts as an aqueous suspension or as an emulsion, with the addition of 0.5% of an additive, at an application rate of 600 litres of water per hectare (converted). The test plants were placed in the greenhouse for ca. 3 weeks under optimum growth conditions, and then the effect of the preparations was assessed visually in comparison with untreated controls (herbicidal effect in percent (%): 100% effect=plants have died, 0% effect=as control plants). Tables B1 to B11 below, show the effects of selected compounds of the general formula (I) according to Table 1 on various harmful plants using an application rate corresponding to 1280 g/ha obtained by the experimental procedure mentioned above.

[2] = tested on: Amaranthus retroflexus (AMARE); test: Herbicidal post-emergence action, 320 g/ha, AMARE; conditions: visual grading after ca. 3 weeks
Source text: as §1, with “plants).” for “plants). Tables B1 to B11 below, show the effects of selected compounds of the general formula (I) according to Table 1 on various harmful plants using an application rate corresponding to 1280 g/ha obtained by the experimental procedure mentioned above.”
(§2) Tables D1 to D8 below, show the effects of selected compounds of the general formula (I) according to Table 1 on various harmful plants using an application rate corresponding to 320 g/ha obtained by the experimental procedure mentioned above.

[3] = tested on: Amaranthus retroflexus (AMARE); test: Herbicidal post-emergence action, 1280 g/ha, AMARE; conditions: visual grading vs untreated controls
Source text: as §1, with “plants).” for “plants). Tables B1 to B11 below, show the effects of selected compounds of the general formula (I) according to Table 1 on various harmful plants using an application rate corresponding to 1280 g/ha obtained by the experimental procedure mentioned above.”
(§3) Tables B1 to B11 below, show the effects of selected compounds of the general formula (I) according to Table 1 on various harmful plants using an application rate corresponding to 1280 g/ha obtained by the experimental procedure mentioned above.

Stellaria media (STEME) [4] = test: Herbicidal post-emergence action, 1280 g/ha (Table B9); conditions: visual assessment after ca. 3 weeks vs untreated controls
Source text: as §1

Stellaria media (STEME) [5] = test: Herbicidal pre-emergence action, 1280 g/ha (Table A9); conditions: visual grading after ca. 3 weeks vs untreated controls
Source text: (§4) Seeds of mono- and dicotyledonous weed plants were sown in plastic pots (double sowings with one species of mono- and one species of dicotyledonous weed plants per pot), in sandy loam, and covered with soil. The compounds according to the invention, formulated in the form of wettable powders (WP) or as emulsifiable concentrates (EC), were applied to the surface of the covering soil as an aqueous suspension or as an emulsion, with the addition of 0.5% of an additive, at an application rate of 600 litres of water per hectare (converted). Following treatment, the pots were placed in a greenhouse and kept under optimum growth conditions for the test plants. The visual grading of the damage to the test plants was carried out after ca. 3 weeks in comparison to untreated controls (herbicidal effect in percent (%): 100% effect=plants have died, 0% effect=as control plants). Tables A1 to A11 below, show the effects of selected compounds of the general formula (I) according to Table 1 on various harmful plants and an application rate corresponding to 1280 g/ha obtained by the experimental procedure mentioned above.

Lolium rigidum (LOLRI) [6] = test: Herbicidal post-emergence action, 1280 g/ha (Table B5); conditions: visual assessment after ca. 3 weeks vs untreated controls
Source text: as §1

Veronica persica (VERPE) [7] = test: Herbicidal post-emergence action, 1280 g/ha, VERPE; conditions: visual grading vs untreated controls
Source text: as §1, with “plants).” for “plants). Tables B1 to B11 below, show the effects of selected compounds of the general formula (I) according to Table 1 on various harmful plants using an application rate corresponding to 1280 g/ha obtained by the experimental procedure mentioned above.”
as §3

Poa annua (POAAN) = test: Herbicidal pre-emergence action, 1280 g/ha (Table A7); conditions: visual grading after ca. 3 weeks vs untreated controls
Source text: as §4

[8] = tested on: Matricaria inodora (MATIN); test: Herbicidal post-emergence action, 1280 g/ha (Table B6); conditions: visual assessment after ca. 3 weeks vs untreated controls
Source text: as §1

Lolium rigidum (LOLRI) [9] = test: Herbicidal pre-emergence action, 1280 g/ha (Table A5); conditions: visual grading after ca. 3 weeks vs untreated controls
Source text: as §4

[10] = tested on: Abutilon theophrasti (ABUTH); test: Herbicidal post-emergence action, 320 g/ha, ABUTH; conditions: visual grading after ca. 3 weeks
Source text: as §1, with “plants).” for “plants). Tables B1 to B11 below, show the effects of selected compounds of the general formula (I) according to Table 1 on various harmful plants using an application rate corresponding to 1280 g/ha obtained by the experimental procedure mentioned above.”
as §2

Veronica persica (VERPE) [11] = test: Herbicidal post-emergence action, 320 g/ha, VERPE; conditions: visual grading after ca. 3 weeks
Source text: as §1, with “plants).” for “plants). Tables B1 to B11 below, show the effects of selected compounds of the general formula (I) according to Table 1 on various harmful plants using an application rate corresponding to 1280 g/ha obtained by the experimental procedure mentioned above.”
as §2

[12] = tested on: Abutilon theophrasti (ABUTH); test: Herbicidal post-emergence action, 1280 g/ha (Table B1); conditions: visual assessment after ca. 3 weeks vs untreated controls
Source text: as §1

Kochia scoparia (KCHSC) [13] = test: Herbicidal post-emergence action, 320 g/ha, KCHSC; conditions: visual grading after ca. 3 weeks
Source text: as §1, with “plants).” for “plants). Tables B1 to B11 below, show the effects of selected compounds of the general formula (I) according to Table 1 on various harmful plants using an application rate corresponding to 1280 g/ha obtained by the experimental procedure mentioned above.”
as §2

Kochia scoparia (KCHSC) [14] = test: Herbicidal pre-emergence action, 1280 g/ha (Table A4); conditions: visual grading after ca. 3 weeks vs untreated controls
Source text: as §4

Stellaria media (STEME) [15] = test: Herbicidal post-emergence action, 320 g/ha, STEME; conditions: visual grading after ca. 3 weeks
Source text: as §1, with “plants).” for “plants). Tables B1 to B11 below, show the effects of selected compounds of the general formula (I) according to Table 1 on various harmful plants using an application rate corresponding to 1280 g/ha obtained by the experimental procedure mentioned above.”
as §2

[16] = tested on: Abutilon theophrasti (ABUTH); test: Herbicidal pre-emergence action, 1280 g/ha (Table A1); conditions: visual grading after ca. 3 weeks vs untreated controls
Source text: as §4

[17] = tested on: Matricaria inodora (MATIN); test: Herbicidal pre-emergence action, 1280 g/ha (Table A6); conditions: visual grading after ca. 3 weeks vs untreated controls
Source text: as §4

Stellaria media (STEME) [18] = test: Herbicidal pre-emergence action, 320 g/ha, STEME; conditions: visual grading after ca. 3 weeks
Source text: as §4, with “plants).” for “plants). Tables A1 to A11 below, show the effects of selected compounds of the general formula (I) according to Table 1 on various harmful plants and an application rate corresponding to 1280 g/ha obtained by the experimental procedure mentioned above.”
Tables C1 to C6 below, show the effects of selected compounds of the general formula (I) according to Table 1 on various harmful plants using an application rate corresponding to 320 g/ha obtained by the experimental procedure mentioned above.

[19] = tested on: Matricaria inodora (MATIN); test: Herbicidal post-emergence action, 320 g/ha, MATIN; conditions: visual grading after ca. 3 weeks
Source text: as §1, with “plants).” for “plants). Tables B1 to B11 below, show the effects of selected compounds of the general formula (I) according to Table 1 on various harmful plants using an application rate corresponding to 1280 g/ha obtained by the experimental procedure mentioned above.”
as §2

[20] = tested on: Amaranthus retroflexus (AMARE); test: Herbicidal pre-emergence action, 1280 g/ha (Table A11); conditions: visual grading after ca. 3 weeks vs untreated controls
Source text: as §4

Lolium rigidum (LOLRI) [21] = test: Herbicidal pre-emergence action, 320 g/ha (Table C2); conditions: visual grading after ca. 3 weeks vs untreated controls
Source text: as §4, with “Tables C1” for “Tables A1”, “to C6” for “to A11”, “plants using” for “plants and”, “to 320” for “to 1280”

Structure (SMILES) | herbicidal effect KCHSC (Kochia scoparia (KCHSC) [1]) [%] | herbicidal effect AMARE [2] [%] | herbicidal effect AMARE [3] [%] | herbicidal effect STEME (Stellaria media (STEME) [4]) [%] | herbicidal effect STEME (Stellaria media (STEME) [5]) [%] | herbicidal effect VERPE (Veronica persica (VERPE) [7]) [%] | herbicidal effect MATIN [8] [%] | herbicidal effect LOLRI (Lolium rigidum (LOLRI) [9]) [%] | herbicidal effect ABUTH [12] [%] | herbicidal effect KCHSC (Kochia scoparia (KCHSC) [13]) [%] | herbicidal effect STEME (Stellaria media (STEME) [15]) [%] | herbicidal effect MATIN [17] [%] | herbicidal effect AMARE [20] [%] | other results
Cc1nn(C)c(=O)c(Oc2ccccc2C(F)(F)F)c1O [Example I-007, 5-hydroxy-2,6-dimethyl-4-[2-(trifluoromethyl)phenoxy]pyridazin-3-one] | 100 | 90 | 90 | 100 | 100 | 90 | 90 | 90 | – | – | – | – | – | herbicidal effect LOLRI (Lolium rigidum (LOLRI) [6]): 90%; herbicidal effect POAAN (Poa annua (POAAN)): 100%
Cc1ccccc1Oc1c(O)c(C)nn(C)c1=O [Example I-017] | 100 | 90 | 90 | – | – | 90 | – | – | 90 | – | – | – | – | herbicidal effect ABUTH [10]: 90%; herbicidal effect VERPE (Veronica persica (VERPE) [11]): 90%
Cc1nn(C)c(=O)c(Oc2ccc(Cl)cc2Cl)c1O [Example I-019, 4-(2,4-dichlorophenoxy)-5-hydroxy-2,6-dimethyl-pyridazin-3-one] | 90 | 90 | 90 | 90 | 100 | 90 | 90 | 90 | 90 | 90 | – | – | – | herbicidal effect ABUTH [10]: 90%
Cc1nn(C)c(=O)c(Oc2ccccc2F)c1O [Example I-021] | – | – | – | – | – | – | – | – | – | – | – | – | – | herbicidal effect POAAN (Poa annua (POAAN)): 90%
Cc1nn(C)c(=O)c(Oc2ccc(Cl)cc2Cl)c1OC(=O)C(C)(C)C [Example I-049] | 90 | – | 100 | – | 100 | 90 | 90 | – | 90 | 90 | – | – | – | herbicidal effect KCHSC (Kochia scoparia (KCHSC) [14]): 90%
CCOC(=O)Oc1c(C)nn(C)c(=O)c1Oc1cc(Cl)ccc1C1CC1 [Example I-070] | – | 90 | 100 | 100 | 90 | 90 | 90 | 100 | 100 | – | 90 | 100 | – | herbicidal effect ABUTH [10]: 100%; herbicidal effect LOLRI (Lolium rigidum (LOLRI) [6]): 100%; herbicidal effect ABUTH [16]: 100%; herbicidal effect STEME (Stellaria media (STEME) [18]): 90%
CCOC(=O)Oc1c(C)nn(C)c(=O)c1Oc1ccccc1OC(F)F [Example I-074] | 90 | – | 100 | 100 | 90 | 90 | 90 | 90 | 100 | 90 | – | – | – | herbicidal effect LOLRI (Lolium rigidum (LOLRI) [6]): 90%
Cc1nn(C)c(=O)c(Oc2cc(F)c(F)cc2Br)c1O [Example I-087] | 100 | 90 | 100 | – | – | 90 | 100 | 90 | 100 | 90 | – | – | – | herbicidal effect VERPE (Veronica persica (VERPE) [11]): 90%; herbicidal effect MATIN [19]: 90%
Cc1nn(C)c(=O)c(Oc2cc(F)c(F)cc2Br)c1OC(=O)C(C)C [Example I-094] | 90 | – | 100 | – | – | 90 | 90 | – | 90 | – | – | 100 | 100 | herbicidal effect MATIN [19]: 90%
Cc1nn(C)c(=O)c(Oc2cc(Cl)cc(Cl)c2Cl)c1O [Example I-096] | – | – | 90 | 100 | 100 | – | – | 90 | – | – | 90 | 100 | 90 | herbicidal effect LOLRI (Lolium rigidum (LOLRI) [21]): 90%; herbicidal effect STEME (Stellaria media (STEME) [18]): 100%
CCOC(=O)Oc1c(C)nn(C)c(=O)c1Oc1cc(Cl)cc(Cl)c1Cl [Example I-097] | – | – | 90 | 90 | 100 | – | – | 100 | – | – | 90 | – | 100 | herbicidal effect ABUTH [16]: 100%; herbicidal effect STEME (Stellaria media (STEME) [18]): 90%
CCOC(=O)Oc1c(C)nn(C)c(=O)c1Oc1cc(F)cc(F)c1Br [Example I-098] | 90 | – | 100 | 90 | 100 | 90 | 90 | – | 90 | 90 | 90 | 100 | 100 | –
